How the values were obtained:
F508del-CFTR [1] = target: T1, F508del-CFTR (Homo sapiens, UniProt P13569, DEL508-508); assay: HS-YFP functional assay of corrector combinations with VX-445; assay type: cell-based; parameters: expressed in transfected cells; conditions: CFBE41o- cells, 24 h, VX-445 3 µM; for effect of combination with VX-445 on F508del-CFTR activity: forskolin 20 µM plus VX-770 1 µM
Procedure: Now, to further characterize the activity of these compounds, we tested the novel derivates 9b, 9g, and 9j, along with VX-809 as a positive control, in combination with VX-445 (3 µM), in CFBE41o-cells stably expressing F508del-CFTR by using the YFP functional assay (Figure 7). To this aim, cells were treated for 24 h with test compounds at different concentrations, in combination with VX-445 (3 µM), and then assayed after maximal stimulation of F508del-CFTR in the presence of forskolin (20 µM) plus VX-770 (1 µM).
CFBE41o-cells co-expressing mutants CFTR and HS-YFP were plated (50,000 cells/well) on clear-bottom 96-well black microplates (Corning Life Sciences, Acton, MA) and grown at 37 °C in 5% CO2 for 24 h. For the corrector assay, CFBE41o-cells were treated for further 24 h with compounds as indicated. The following day, prior to the assay, the culture medium was removed and cells were stimulated for 30 min at 37 °C with 60 µL PBS (containing 137 mM NaCl, 2.7 mM KCl, 8.1 mM Na2HPO4, 1.5 mM KH2PO4, 1mM CaCl2, and 0.5 mM MgCl2) plus forskolin (20 µM) and VX-770 (1 µM).
Microplates containing CFBE41o-cells were then transferred to a plate reader (FluoStar Galaxy; BMG Labtech, Offenburg, Germany) equipped with excitation (HQ500/20X: 500 ± 10 nm) and emission (HQ535/30M: 535 ± 15 nm) filters for YFP (Chroma Technology, Brattleboro, VT, USA). During the assay fluorescence was measured continuously for 14 s with 2 s before and 12 s after injection of an iodide containing solution (165 µL of a modified PBS containing I^- instead of Cl^-; final I^- concentration in the well: 100 mM).
Fluorescence data were normalized for the initial value and fluorescence quenching rate following I^- influx, were determined by fitting the final 10 s of data for each well with an exponential function to extrapolate initial slope (dF/dt).
Figure 7 Functional analysis of corrector combinations. F508del-CFTR activity was determined in CFBE41o-cells with stable expression of the HS-YFP. Cells were treated for 24 h with VX-445 (3 µM) alone or in combination with 9b, or 9g, or 9j, or VX-809 at different concentrations (from 102 nM to 10 µM). The YFP-based assay was performed after stimulation of CFTR activity with forskolin (20 µM) plus VX-770 (1 µM).

F508del-CFTR [2] = target: T1, F508del-CFTR; assay: Western blot analysis of CFTR expression pattern (C band/B band ratio); assay type: cell-based; parameters: expressed in transfected cells; conditions: F508del-CFTR/HS-YFP CFBE41o- cells; 24 h; 50 nM and 1 µM; versus DMSO
Source text: We then biochemically estimated the rescue of the trafficking defect by analyzing the electrophoretic mobility of mutant CFTR protein. In Western blots, CFTR protein can be detected as two bands B and C, of approximately 150 and 170 kDa, respectively. Band B corresponds to immature, partially glycosylated CFTR, while band C corresponds to the mature fully glycosylated CFTR. In cells expressing wild-type CFTR protein, the prevalent form is band C, while the main form in cells expressing F508del-CFTR is band B, in agreement with the severe trafficking defect caused by this mutation (Figure 8). To estimate the effect of our molecules on CFTR expression pattern, we treated F508del-CFTR/HS-YFP expressing CFBE41o-cells for 24 h with test compounds 9b, 9g, and 9j (50 nM and 1 µM) VX-809 as a positive control or DMSO as a vehicle alone.
The next day, cells were lysed and the obtained lysates were subjected to SDS-PAGE followed by Western blotting (Figure 8A). Western blot images were analyzed with ImageJ software. CFTR bands, analyzed as ROI, were quantified in each lane after normalization for GAPDH as a loading control. […]
Supernatant protein concentration was calculated using the BCA assay (Euroclone, Milan, Italy). For each sample, 10 μg of total proteins was resolved in 4–20% gradient Criterion TGX precast gels, transferred to nitrocellulose membranes (using a Trans-Blot Turbo system; Bio-Rad, Hercules, CA, USA), and analyzed by Western blotting. Proteins were detected using the antibodies described above and subsequently visualized by chemiluminescence using the SuperSignal West Femto Substrate (Thermo Fisher Scientific, Waltham, MA, USA). […] Images were analyzed with ImageJ software (NIH). Bands were analyzed as ROI, normalized against the GAPDH loading control.
Figure 8 Biochemical analysis of the F508del-CFTR expression pattern: (A). […] Quantification of the C band/B band ratio in experiments as in (A). […]

T1 sequence (P13569 with tags, fused parts or gaps DEL508-508): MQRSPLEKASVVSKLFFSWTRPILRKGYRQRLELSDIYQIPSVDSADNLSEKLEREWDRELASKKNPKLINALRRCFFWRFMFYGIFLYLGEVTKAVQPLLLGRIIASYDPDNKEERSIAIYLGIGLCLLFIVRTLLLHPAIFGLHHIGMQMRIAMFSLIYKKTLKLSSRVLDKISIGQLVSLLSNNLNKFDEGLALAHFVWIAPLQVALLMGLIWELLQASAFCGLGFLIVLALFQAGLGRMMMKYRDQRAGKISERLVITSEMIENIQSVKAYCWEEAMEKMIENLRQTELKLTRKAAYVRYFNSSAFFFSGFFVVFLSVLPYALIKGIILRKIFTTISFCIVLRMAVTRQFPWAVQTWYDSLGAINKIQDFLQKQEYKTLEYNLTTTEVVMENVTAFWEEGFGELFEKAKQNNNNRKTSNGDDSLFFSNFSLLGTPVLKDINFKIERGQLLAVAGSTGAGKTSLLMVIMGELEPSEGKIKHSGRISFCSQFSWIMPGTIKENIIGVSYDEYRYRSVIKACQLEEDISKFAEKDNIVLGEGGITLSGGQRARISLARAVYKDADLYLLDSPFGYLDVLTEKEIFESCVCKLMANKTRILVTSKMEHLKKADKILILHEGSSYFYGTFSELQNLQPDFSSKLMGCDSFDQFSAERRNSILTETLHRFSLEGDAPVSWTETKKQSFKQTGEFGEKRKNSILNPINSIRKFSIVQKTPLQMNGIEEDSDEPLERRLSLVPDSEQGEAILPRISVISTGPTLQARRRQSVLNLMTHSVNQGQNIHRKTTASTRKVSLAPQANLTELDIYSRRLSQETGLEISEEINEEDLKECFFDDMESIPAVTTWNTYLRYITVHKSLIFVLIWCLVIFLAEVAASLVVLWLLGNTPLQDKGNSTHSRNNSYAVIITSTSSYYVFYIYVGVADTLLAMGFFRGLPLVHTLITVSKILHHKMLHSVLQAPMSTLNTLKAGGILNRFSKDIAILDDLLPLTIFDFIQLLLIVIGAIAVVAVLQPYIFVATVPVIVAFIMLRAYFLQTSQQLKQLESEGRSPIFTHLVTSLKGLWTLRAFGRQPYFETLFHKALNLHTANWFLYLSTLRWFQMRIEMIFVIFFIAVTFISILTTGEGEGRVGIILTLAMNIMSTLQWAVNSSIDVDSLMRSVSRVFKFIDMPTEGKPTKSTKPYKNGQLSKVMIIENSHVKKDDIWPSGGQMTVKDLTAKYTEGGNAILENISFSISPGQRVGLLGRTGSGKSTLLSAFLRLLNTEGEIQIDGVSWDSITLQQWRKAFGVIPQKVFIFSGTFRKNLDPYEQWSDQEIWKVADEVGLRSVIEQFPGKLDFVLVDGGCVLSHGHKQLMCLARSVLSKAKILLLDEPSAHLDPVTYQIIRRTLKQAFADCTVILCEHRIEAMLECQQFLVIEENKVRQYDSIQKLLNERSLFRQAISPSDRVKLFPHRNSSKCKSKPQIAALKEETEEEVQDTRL

| Structure (SMILES) | combination with VX-445 compared with VX-809 + VX-445: maximal rescue and activity at low concentration (F508del-CFTR [1]) | effect of combination with VX-445 on F508del-CFTR activity (F508del-CFTR [1]) | C band/B band ratio (F508del-CFTR [2]) |
| --- | --- | --- | --- |
| COc1ccc(-c2nc(NC(=O)C3(c4ccc5c(c4)OCO5)CC3)sc2C(=O)c2ccc(N3CCCC3)cc2)cc1 [Compound 9g] | as effective as the combination with the positive control VX-809 | clear additive effect | significant enhancement |
| COc1cccc(-c2nc(NC(=O)C3(c4ccc5c(c4)OCO5)CC3)sc2C(=O)c2ccc(OC(F)(F)F)cc2)c1 [Compound 9j] | as effective as the combination with the positive control VX-809 | clear additive effect | significant enhancement |

Reference: PMC8955485, “Journey on VX-809-Based Hybrid Derivatives towards Drug-like F508del-CFTR Correctors: From Molecular Modeling to Chemical Synthesis and Biological Assays” (Pharmaceuticals, 2022)
